This is an account of results in US20160303137A1, “DUAL PI3K AND WNT PATHWAY INHIBITION AS A TREATMENT FOR CANCER” (Indiana University Research and Technology Corporation, priority 2015, published 2016).

For data set [1], the system named is Wnt pathway genes incl. Porcupine (PORCN). The experiment in a line: RNA-seq of MDA-MB-231 before and after Buparlisib treatment. Format: cell-based, human. The conditions noted are these: MDA-MB-231, RNA-seq after vs before treatment. The procedure: RNA-sequencing for the Buparlisib treated MDA-MB-231 cell line experiment was performed as follows. To enrich for the non-ribosomal RNA transcriptome, RNA samples were first depleted of ribosomal RNA using the Low Input Ribominus Kit (Life Technologies). ERCC spike-in controls (Pool 1) were introduced for all samples (Life Technologies). RNA libraries were constructed using the Ion Total RNA-Seq Kit for AB Library Builder System (Life Technologies) per manufacturer's instructions. Libraries were barcoded using the IonXpress RNA-Seq Barcode 1-16 Kit (Life Technologies), and libraries were quantified using the Agilent TapeStation 2200 along with the DNA D1K Kit. Libraries were diluted to a concentration of 11 picomolar prior to templating and emulsion PCR using the Ion Template OT2 200 v2 kit along with Ion OneTouch 2 instrument (Life Technologies). Templates were quantified using the IonSphere Quality Control Kit (Life Technologies). Samples were sequenced on an Ion Proton Next-Generation Sequencer using the Ion Proton PI chip and the Ion PI Sequencing 200 v2 kit (Life Technologies). Samples were sequenced using 2 RNA-seq libraries/samples per chip to an average of 30-40 million reads per sample. Reads were mapped to the human genome (hg19) using the STAR algorithm (Dobin et al. Bioinformatics 29, 15-21 (2013)). Aligned BAM files were then imported into Partek Genomics Suite. […]

Data set [2] concerns phosphorylated-AKT (p-AKT Ser 473). The experiment in a line: Western blot of phospho-AKT in TNBC cell lines. The class given is cell-based. The conditions noted are these: MDA-MB-231, HCC70, HCC1143; 1 μM or 10 μM; 72 hours. The method, then:
(§1) For Western Blot analysis, target modulation was assessed using qPCR for Axin2 (a marker of WNT974), and western blot for Porcupine and Phospho-Akt […] (a marker of Buparlisib activity). qPCR was performed using Taqman assays (Life Technologies). For western blotting, protein was isolated using RIPA buffer and quantified with BCA assay (Thermo Fisher). Protein was run on Bis-Tris gels (Life Technologies) and transferred to PVDF. Primary pAKT-[…] antibody (Cell Signaling Technology, Beverly, Mass.), β-actin (Cell Signaling Technology), and PORCN (Abcam, Cambridge, England) were incubated overnight with subsequent 1 hour incubation with HRP-conjugate secondary antibody. Staining was performed using a chemiluminescent substrate (ThermoFisher). Imaging was performed using an LAS-4000 Luminescent Image Analyzer (Fujifilm, Tokyo, Japan). Three TNBC cell lines: MDA-MB-231, HCC70, and HCC1143 were treated with either 0, 1 μM or 10 μM Buparlisib. After 72 hours, protein was isolated and PORCN and pAKT expression was observed.

The subject of another data set is TMD-231 TNBC cells. In words: Pharmacodynamic study, TMD-231 xenograft tumor volume. The class given is in vivo, NSG mice. Conditions: single agent, 7 days once-a-day; Buparlisib 30 mg/kg, WNT974 3 mg/kg. The procedure: For the pharmacodynamic studies, NSG mice were implanted with TMD-231 TNBC cells into the mammary fat pad of 24 NSG mice (6 mice per group: Vehicle, Buparlisib, WNT974, Buparlisib+WNT974). The TMD-231 cell line is a variant of the MDA-MB-231 cell line that metastasizes to the lung. Tumors were allowed to grow for 29 days to an average size of approximately 350 mm^3 prior to dosing. To validate compound-mediated modulation of the PI3K/mTOR and Wnt signaling pathways, mice were dosed once-a-day with vehicle, Buparlisib (30 mg/kg), WNT974 (3 mg/kg), or the combination for 7 days, with intermittent tumor measurements.

The next data set deals with AXIN2 RNA. In words: Axin2 RNA qPCR on TMD-231 tumors (PD study). Format: in vivo, NSG mice. The conditions noted are these: 7 days once-a-day; Buparlisib 30 mg/kg, WNT974 3 mg/kg. The procedure:
as §1, with “Japan).” for “Japan). Three TNBC cell lines: MDA-MB-231, HCC70, and HCC1143 were treated with either 0, 1 μM or 10 μM Buparlisib. After 72 hours, protein was isolated and PORCN and pAKT expression was observed.”

For data set [3] the following is noted: known; cited from earlier work.

Regarding `Nc1cc(C(F)(F)F)c(-c2cc(N3CCOCC3)nc(N3CCOCC3)n2)cn1` [Buparlisib, 5-(2,6-di-4-morpholinyl-4-pyrimidinyl)-4-(trifluoromethyl)-2-pyridinamine], the “expression of Wnt pathway genes” value in data set [1] is given as “significant increase”. The “Porcupine (PORCN) gene over-expression after treatment” value in data set [1] (preliminary data) is recorded as “approximately 8 fold”. Also, in data set [2], the phospho-AKT result is given as “potent inhibition”. The “tumor volume change (in words)” value in the data set on TMD-231 TNBC cells is “grew slightly”. Besides, the “Axin2 RNA expression in tumors” value with AXIN2 RNA is “no significant change”. In addition, the “toxicity / most common side effect in humans” value in data set [3] is “depression, anxiety, pneumonitis, and liver toxicity”.
